Results as given in ChEMBL document CHEMBL5230122, “Natural products and other inhibitors of F1FO ATP synthase” (Eur J Med Chem, 2020).
pIC50: −log10 of the molar value. ≈ marks a conversion by molar mass, not a printed value. One block for each compound: values may come before it. Square brackets hold non-standard residues; d marks the D form. Peptide text beside a SMILES is read from it. * marks the point of attachment. X4 = CC(C)C[C@@H](C[N+]1=C2CCCN2CCC1)N*; Pip = O=C(O)[C@@H]1CCCCN1; Iva = CC[C@](C)(N)C(=O)O; Aib = CC(C)(N)C(=O)O; βAla = NCCC(=O)O

Key:
[1] = Anticancer activity against rat SV-3Y1-C66 cells assessed as reduction in cell viability incubated for 3 days by MTT assay; assay type: functional, cell-based; conditions: SV-3Y1-C66, 72 h
[2] = Anticancer activity against rat HR-3Y1-1 cells assessed as reduction in cell viability incubated for 3 days by MTT assay; assay type: functional, cell-based; conditions: HR-3Y1-1, 72 h
[3] = Anticancer activity against rat E1A-3Y1-3 cells assessed as reduction in cell viability incubated for 3 days by MTT assay; assay type: functional, cell-based; conditions: E1A-3Y1-3, 72 h
[4] = Anticancer activity against rat Ad12-3Y1-Z13 cells assessed as reduction in cell viability incubated for 3 days by MTT assay; assay type: functional, cell-based; conditions: Ad12-3Y1-Z13, 72 h
[5] = Anticancer activity against rat SR-3Y1-2 cells assessed as reduction in cell viability incubated for 3 days by MTT assay; assay type: functional, cell-based; conditions: SR-3Y1-2, 72 h
[6] = Anticancer activity against human ACC-MESO-1 cells assessed as reduction in cell viability incubated for 72 hrs by WST-8 assay; assay type: functional, cell-based; conditions: ACC-MESO-1, 72 h
SK-OV-3 [7] = assay: Anticancer activity against human SK-OV-3 cells assessed as reduction in cell viability incubated for 72 hrs by WST-8 assay; assay type: functional, cell-based; conditions: SK-OV-3, 72 h
Jurkat = assay: Anticancer activity against human Jurkat cells assessed as reduction in cell viability incubated for 72 hrs by WST-8 assay; assay type: functional, cell-based
[8] = Anticancer activity against rat Ad12-3Y1-Z19 cells assessed as reduction in cell viability incubated for 3 days by MTT assay; assay type: functional, cell-based; conditions: Ad12-3Y1-Z19, 72 h
[9] = Anticancer activity against rat Ad12-3Y1-W5 cells assessed as reduction in cell viability incubated for 3 days by MTT assay; assay type: functional, cell-based; conditions: Ad12-3Y1-W5, 72 h
[10] = Anticancer activity against rat HR-3Y1-2 cells assessed as reduction in cell viability incubated for 3 days by MTT assay; assay type: functional, cell-based; conditions: HR-3Y1-2, 72 h
[11] = Anticancer activity against rat SR-3Y1-3 cells assessed as reduction in cell viability incubated for 3 days by MTT assay; assay type: functional, cell-based; conditions: SR-3Y1-3, 72 h
[12] = Anticancer activity against rat Ad12-3Y1-Z11 cells assessed as reduction in cell viability incubated for 3 days by MTT assay; assay type: functional, cell-based; conditions: Ad12-3Y1-Z11, 72 h
[13] = Anticancer activity against rat HR-3Y1-3 cells assessed as reduction in cell viability incubated for 3 days by MTT assay; assay type: functional, cell-based; conditions: HR-3Y1-3, 72 h
[14] = Anticancer activity against rat SR-3Y1-1 cells assessed as reduction in cell viability incubated for 3 days by MTT assay; assay type: functional, cell-based; conditions: SR-3Y1-1, 72 h
[15] = Anticancer activity against rat E1A-3Y1-1 cells assessed as reduction in cell viability incubated for 3 days by MTT assay; assay type: functional, cell-based; conditions: E1A-3Y1-1, 72 h
[16] = Anticancer activity against rat E1A-3Y1-2 cells assessed as reduction in cell viability incubated for 3 days by MTT assay; assay type: functional, cell-based; conditions: E1A-3Y1-2, 72 h
MDA-MB-231 = assay: Anticancer activity against human MDA-MB-231 cells assessed as reduction in cell viability incubated for 72 hrs by MTT assay; assay type: functional, cell-based; conditions: MDA-MB-231, 72 h
A549 [17] = assay: Anticancer activity against human A549 cells assessed as reduction in cell viability incubated for 72 hrs by MTT assay; assay type: functional, cell-based; conditions: A549, 72 h
HeLa = assay: Anticancer activity against human HeLa cells assessed as reduction in cell viability incubated for 72 hrs by MTT assay; assay type: functional, cell-based
PaTu 8988t = assay: Anticancer activity against human PaTu 8988t cells assessed as reduction in cell viability incubated for 72 hrs by MTT assay; assay type: functional, cell-based
MCF7 = assay: Anticancer activity against human MCF7 cells assessed as reduction in cell viability incubated for 72 hrs by MTT assay; assay type: functional, cell-based; conditions: MCF7, 72 h
PANC-1 = assay: Anticancer activity against human PANC-1 cells assessed as reduction in cell viability by measuring ATP level incubated for 24 hrs by CellTiter-Glo assay; assay type: functional, cell-based; conditions: PANC-1, 24 h
SK-OV-3 [18] = assay: Antiproliferative activity against human SK-OV-3 cells assessed as decrease in cellular ATP content and measured after 2 days by CellTiter-Glo luminescent assay; assay type: functional, cell-based; conditions: SK-OV-3, 48 h
U-937 = assay: Antiproliferative activity against human U-937 cells assessed as decrease in cellular ATP content and measured after 2 days by CellTiter-Glo luminescent assay; assay type: functional, cell-based; conditions: U-937, 48 h
[19] = Inhibition of bovine heart mitochondrial F0F1-ATP synthase incubated for 15 mins by colorimetric assay; assay type: mitochondria, Bos taurus, Mitochondria
[20] = Cytotoxicity against mouse L929 cells assessed as reduction in cell viability; assay type: toxicity, cell-based
A498 = assay: Antiproliferative activity against human A498 cells assessed as decrease in cellular ATP content and measured after 2 days by CellTiter-Glo luminescent assay; assay type: functional, cell-based; conditions: A498, 48 h
A549 [21] = assay: Antiproliferative activity against human A549 cells assessed as decrease in cellular ATP content and measured after 2 days by CellTiter-Glo luminescent assay; assay type: functional, cell-based; conditions: A549, 48 h
KB 3-1 = assay: Antiproliferative activity against human KB-3-1 cells assessed as decrease in cellular ATP content and measured after 2 days by CellTiter-Glo luminescent assay; assay type: functional, cell-based; conditions: KB 3-1, 48 h
KB-V1 = assay: Antiproliferative activity against human KB-V1 cells assessed as decrease in cellular ATP content and measured after 2 days by CellTiter-Glo luminescent assay; assay type: functional, cell-based; conditions: KB-V1, 48 h
[22] = Inhibition of yeast mitochondrial F0F1-ATPase incubated for 15 mins by colorimetric assay; assay type: mitochondria, Saccharomyces cerevisiae, Mitochondria
K562 = assay: Antiproliferative activity against human K562 cells assessed as decrease in cellular ATP content and measured after 2 days by CellTiter-Glo luminescent assay; assay type: functional, cell-based; conditions: K562, 48 h

pIC50 (SK-OV-3 [7]): 4.42
pIC50 (Jurkat): 4.90
Compound: CC[C@H](C)[C@@H]1NC(=O)[C@H](NC(=O)[C@H](C)NC(=S)[C@H](C)NC(=S)[C@H](C)NC(=S)[C@H](C)NC(=S)[C@H](CCSC)NC(=S)[C@@H](NC(=O)C(C)(O)CC(C)=O)C(C)C)CS/C=C\NC(=O)[C@H](C(O)c2cn(C)c[n+]2C)NC(=O)[C@H](CC(C)C)NC(=O)[C@H](C)NC1=O (stereo partly drawn)
IC50 [1]: 460 ng/mL
IC50 [2]: 200 ng/mL
IC50 [3]: 32 ng/mL
IC50 [4]: 3.9 ng/mL
IC50 [5]: 630 ng/mL
pIC50 [6]: 4.56
IC50 [8]: 3.9 ng/mL
IC50 [9]: 3.9 ng/mL
IC50 [10]: 200 ng/mL
IC50 [11]: 630 ng/mL
IC50 [12]: 3.9 ng/mL
IC50 [13]: 200 ng/mL
IC50 [14]: 630 ng/mL
IC50 [15]: 32 ng/mL
IC50 [16]: 32 ng/mL

pIC50 (MDA-MB-231): 7.14
pIC50 (A549 [17]): 7.32
pIC50 (HeLa): 7.30
pIC50 (MCF7): 7.23
Compound: CCC(C)[C@H](NC(=S)[C@@H](NC(=O)C(C)O)C(C)C)C(=O)NCC(=O)N[C@@H](Cc1ccccc1O)C(=S)N[C@@H](C)C(=S)N[C@H](C(=O)N[C@H]1C(=O)N[C@@H]([C@@H](C)CC)C(=O)N[C@@H](C)C(=O)N[C@@H](C(C)C)C(=O)N[C@@H](Cc2cn(C)c[n+]2C)C(=O)N/C=C\SC1C)C(C)C (stereo partly drawn)
pIC50 (PaTu 8988t): 7.19

Compound: CC[C@](C)(NC(=O)[C@H](CC(C)C)NC(=O)[C@H](C)NC(=O)C(C)(C)NC(=O)[C@@H]1CCCCN1C(=O)C(C)(C)NC(=O)C(C)(C)NC(=O)CNC(=O)CCNC(=O)[C@H](CC(C)C)NC(=O)C(C)(C)NC(=O)C(C)(C)NC(=O)[C@@H]1CCCCN1C(=O)C(C)(C)NC(=O)[C@@H]1CCCCN1C(C)=O)C(=O)N[C@@H](CC(C)C)C[N+]1=C2CCCN2CCC1 (Ac-[Pip][Aib][Pip][Aib][Aib]L[βAla]G[Aib][Aib][Pip][Aib]AL[Iva]-X4)
pIC50 (PANC-1): 7.28

IC50 (SK-OV-3 [18]): 1 ng/mL (≈ 1.7 nM)
IC50 (U-937): 0.1 ng/mL (≈ 0.17 nM)
pIC50 [19]: 7.82
IC50 (A549 [21]): 0.4 ng/mL (≈ 0.678 nM)
IC50 (KB 3-1): 0.3 ng/mL (≈ 0.509 nM)
IC50 (KB-V1): 0.6 ng/mL (≈ 1.02 nM)
pIC50 [22]: 7.82
IC50 (K562): 0.6 ng/mL (≈ 1.02 nM)
Compound: CCC[C@H](O)[C@@H](C)C(=O)NC/C=C\C[C@@H](C)[C@@H](O)[C@H](C)[C@@H]1C/C=C\C[C@H](C)[C@H](O)Cc2cc(OC)cc(O)c2C(=O)O1
IC50 [20]: 1.2 ng/mL (≈ 2.03 nM)
IC50 (A498): 0.4 ng/mL (≈ 0.678 nM)
